Experimental data published in ChEMBL document CHEMBL1201862, “PubChem BioAssay data set” (2004).
Where “and” joins values, the source holds several entries; their conditions need not be identical. Equal entries are not always repeated.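 Method: 48-hour compound exposure of cells in 96-well plates, five concentrations, linear interpolation of endpoints. GI50 is the concentration that inhibits growth by half.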 Calls of active or inactive are those of the source. Cut-off read from the data, not from the text of the source: active = GI50 up to about 1.1 µM and inactive = higher.

Assays:
Assay in all cases: NCI-60 cell line screen, 48 h
M14 = system: M14
Malme-3M = system: Malme-3M
TK-10 = system: TK-10
MCF7 = system: MCF7
ACHN = system: ACHN
HCC 2998 = system: HCC 2998
SF-268 = system: SF-268
SK-MEL-5 = system: SK-MEL-5
UACC-62 = system: UACC-62
MDA-MB-435 = system: MDA-MB-435
COLO 205 = system: COLO 205
786-0 = system: 786-0
KM12 = system: KM12
SF-295 = system: SF-295
NCI-H522 = system: NCI-H522
LOX IMVI = system: LOX IMVI
MOLT-4 = system: MOLT-4
NCI-H460 = system: NCI-H460
IGROV-1 = system: IGROV-1
Hs-578T = system: Hs-578T

Structure (SMILES)	GI50 (M14)	GI50 (Malme-3M)	GI50 (TK-10)	GI50 (MCF7)	GI50 (ACHN)	GI50 (HCC 2998)	GI50 (SF-268)	GI50 (SK-MEL-5)	GI50 (UACC-62)	GI50 (MDA-MB-435)	GI50 (COLO 205)	GI50 (786-0)	GI50 (KM12)	GI50 (SF-295)	GI50 (NCI-H522)	GI50 (LOX IMVI)	GI50 (MOLT-4)	GI50 (NCI-H460)	GI50 (IGROV-1)	GI50 (Hs-578T)
Cn1nc(/C=C\C(=O)N2CC(CCl)c3c2cc(N)c2ccccc32)cc1/C=C/C(=O)N1CC(CCl)c2c1cc(N)c1ccccc21 (stereo not given)	< 0.01 µM (active)	< 0.01 µM (active)	< 0.01 µM (active)	< 0.01 µM (active)	< 0.01 µM (active)	< 0.01 µM (active)	< 0.01 µM (active)	< 0.01 µM (active)	< 0.01 µM (active)	< 0.01 µM (active)	< 0.01 µM (active)	< 0.01 µM (active)	< 0.01 µM (active)	< 0.01 µM (active)	< 0.01 µM (active)	< 0.01 µM (active)	< 0.01 µM (active)	< 0.01 µM (active)	–	–
OC(c1ccccc1)(c1ccccc1)c1ccccn1	> 100 µM (inactive)	> 100 µM (inactive)	> 100 µM (inactive)	–	> 100 µM (inactive)	> 100 µM (inactive)	> 100 µM (inactive)	> 100 µM (inactive)	> 100 µM (inactive)	–	> 100 µM (inactive)	> 100 µM (inactive)	> 100 µM (inactive)	> 100 µM (inactive) and 80.5 µM (inactive)	> 100 µM (inactive)	> 100 µM (inactive)	> 100 µM (inactive)	> 100 µM (inactive)	> 100 µM (inactive)	–
N#CC1(C#N)C2C=CC(c3coc4cccc2c34)C1(C#N)C#N (stereo not given)	12.7 µM (inactive)	7.05 µM (inactive)	7.05 µM (inactive)	–	5.53 µM (inactive)	15.2 µM (inactive)	6.27 µM (inactive)	15.4 µM (inactive)	10.2 µM (inactive)	–	1.9 µM (inactive)	20.5 µM (inactive)	18.3 µM (inactive)	19.9 µM (inactive)	1.66 µM (inactive)	15.2 µM (inactive)	1.67 µM (inactive)	19.4 µM (inactive)	18.7 µM (inactive)	–
C/C=C1\Oc2ccc(OC)cc2S1(=O)=O	> 100 µM (inactive)	> 100 µM (inactive)	> 100 µM (inactive)	–	> 100 µM (inactive)	> 100 µM (inactive)	> 100 µM (inactive)	> 100 µM (inactive)	> 100 µM (inactive)	–	> 100 µM (inactive)	> 100 µM (inactive)	> 100 µM (inactive)	> 100 µM (inactive)	> 100 µM (inactive)	> 100 µM (inactive)	> 100 µM (inactive)	> 100 µM (inactive)	> 100 µM (inactive)	–
O=C(CN1CCOCC1)c1ccc2c(c1)oc(=O)n2CCN1CCOCC1	> 100 µM (inactive)	> 100 µM (inactive)	–	> 100 µM (inactive)	–	–	> 100 µM (inactive)	> 100 µM (inactive)	–	> 100 µM (inactive)	> 100 µM (inactive)	> 100 µM (inactive)	> 100 µM (inactive)	> 100 µM (inactive)	–	> 100 µM (inactive)	> 100 µM (inactive)	–	> 100 µM (inactive)	> 100 µM (inactive)
CCCCCCCCCCCCCCCC(=O)OCC1OC(N2C(=O)/C(=N\NC(N)=S)c3ccc([N+](=O)[O-])cc32)C(OC(C)=O)C1OC(C)=O (stereo not given)	62.2 µM (inactive)	> 100 µM (inactive)	> 100 µM (inactive)	–	48.5 µM (inactive)	> 100 µM (inactive)	> 100 µM (inactive)	97.5 µM (inactive)	69.7 µM (inactive)	–	37.1 µM (inactive)	> 100 µM (inactive)	74.1 µM (inactive)	> 100 µM (inactive)	36.6 µM (inactive)	99.3 µM (inactive)	> 100 µM (inactive)	> 100 µM (inactive)	> 100 µM (inactive)	–
CCOC(=O)Nc1nn(C)/c(=N/Cc2ccccc2)s1	–	–	> 100 µM (inactive)	> 100 µM (inactive)	> 100 µM (inactive)	–	–	> 100 µM (inactive)	> 100 µM (inactive)	> 100 µM (inactive)	> 100 µM (inactive)	> 100 µM (inactive)	> 100 µM (inactive)	> 100 µM (inactive)	86.3 µM (inactive)	> 100 µM (inactive)	> 100 µM (inactive)	> 100 µM (inactive)	> 100 µM (inactive)	> 100 µM (inactive)
N#Cc1nc(-c2cnccn2)oc1N	> 100 µM (inactive)	–	> 100 µM (inactive)	> 100 µM (inactive)	> 100 µM (inactive)	–	> 100 µM (inactive)	> 100 µM (inactive)	> 100 µM (inactive)	> 100 µM (inactive)	–	> 100 µM (inactive)	> 100 µM (inactive)	–	–	> 100 µM (inactive)	> 100 µM (inactive)	–	> 100 µM (inactive)	> 100 µM (inactive)
COc1ccc(-c2nc3ncccn3c2-c2ccc(SC)cc2)cc1	1.48 µM (inactive)	–	–	–	7.57 µM (inactive)	–	0.418 µM (active)	0.953 µM (active)	0.916 µM (active)	0.213 µM (active)	1.33 µM (inactive)	4.59 µM (inactive)	0.453 µM (active)	0.989 µM (active)	0.23 µM (active)	2.14 µM (inactive)	3.7 µM (inactive)	2.18 µM (inactive)	2.04 µM (inactive)	1.74 µM (inactive)
Cc1c(C(=O)/C=C/C=C/c2ccccc2)[n+]([O-])c2ccccc2[n+]1[O-]	19.8 µM (inactive)	28.9 µM (inactive)	50.8 µM (inactive)	–	25.7 µM (inactive)	18.9 µM (inactive)	29.5 µM (inactive)	19.9 µM (inactive)	16 µM (inactive)	–	35 µM (inactive)	21.9 µM (inactive)	16.8 µM (inactive)	29.2 µM (inactive)	15 µM (inactive)	31.1 µM (inactive)	40.5 µM (inactive)	18.8 µM (inactive)	26.3 µM (inactive)	–
COc1cccc2c1C(=O)c1c(O)c3c(c(O)c1C2=O)C[C@@](O)(C(C)=O)C[C@@H]3OC1OC(C)C(O)C(N)C1Br (stereo not given in full)	0.0681 µM (active)	0.0769 µM (active)	0.158 µM (active)	0.00385 µM (active)	0.0213 µM (active)	0.111 µM (active)	0.101 µM (active)	0.0689 µM (active)	0.105 µM (active)	0.22 µM (active)	0.418 µM (active)	0.0404 µM (active)	0.14 µM (active)	0.0442 µM (active)	0.0652 µM (active)	0.0208 µM (active)	0.001 µM (active)	0.001 µM (active)	0.266 µM (active)	–
CCCCC(C(=O)C(=O)Nc1ccccc1CC)C(=O)C(C)C (stereo not given)	> 100 µM (inactive)	> 100 µM (inactive)	> 100 µM (inactive)	–	> 100 µM (inactive)	> 100 µM (inactive)	> 100 µM (inactive)	> 100 µM (inactive)	> 100 µM (inactive)	–	> 100 µM (inactive)	> 100 µM (inactive)	> 100 µM (inactive)	> 100 µM (inactive)	> 100 µM (inactive)	> 100 µM (inactive)	> 100 µM (inactive)	> 100 µM (inactive)	> 100 µM (inactive)	–
CC(C)C1OC(=O)/C=C/C=C/C=C/C=C/C=C/CC(O)CC(O)CC(O)CC(O)CC(O)CC(O)CC(O)CC(O)/C=C/C1C (stereo not given)	> 100 µM (inactive)	> 100 µM (inactive)	> 100 µM (inactive)	> 100 µM (inactive)	> 100 µM (inactive)	> 100 µM (inactive)	> 100 µM (inactive)	> 100 µM (inactive)	–	> 100 µM (inactive)	> 100 µM (inactive)	> 100 µM (inactive)	> 100 µM (inactive)	> 100 µM (inactive)	–	> 100 µM (inactive)	> 100 µM (inactive)	> 100 µM (inactive)	> 100 µM (inactive)	–
O=C1C=C2CC[C@H]3[C@@H]4CC[C@H](Oc5c6ccccc6nc6ccccc56)[C@H]4CC[C@@H]3[C@H]2CC1	61.9 µM (inactive)	–	47.8 µM (inactive)	–	48.4 µM (inactive)	–	84.9 µM (inactive)	22.5 µM (inactive)	16.7 µM (inactive)	32.7 µM (inactive)	42.5 µM (inactive)	91.2 µM (inactive)	39.6 µM (inactive)	52.4 µM (inactive)	–	27.8 µM (inactive)	–	35.6 µM (inactive)	31.9 µM (inactive)	26.8 µM (inactive)
COc1ccc(C2=C(OC(C)=O)c3cccn3-c3ccc(Cl)cc3S2)cc1	5.07 µM (inactive)	6.58 µM (inactive)	> 10 µM (inactive)	3.35 µM (inactive)	–	5.43 µM (inactive)	7.55 µM (inactive)	4.93 µM (inactive)	4.48 µM (inactive)	2.22 µM (inactive)	5.66 µM (inactive)	3.85 µM (inactive)	3.63 µM (inactive)	3.05 µM (inactive)	–	5.37 µM (inactive)	2.34 µM (inactive)	–	6.28 µM (inactive)	–
CCN(CC)C(=S)SC [METHYLDIETHYL CARBAMODITHIOATE]	> 100 µM (inactive)	> 100 µM (inactive)	> 100 µM (inactive)	> 100 µM (inactive)	> 100 µM (inactive)	> 100 µM (inactive)	> 100 µM (inactive)	> 100 µM (inactive)	> 100 µM (inactive)	–	> 100 µM (inactive)	> 100 µM (inactive)	–	> 100 µM (inactive)	> 100 µM (inactive)	> 100 µM (inactive)	> 100 µM (inactive)	> 100 µM (inactive)	> 100 µM (inactive)	> 100 µM (inactive)
